Series [1] is described as follows: Relative solubility by turbidity in aqueous buffers (pH 1.5, 4.5, 6.8, 7.4). Type of series: physicochemical. Particulars: for turbidity threshold (L, M, H) 1.4: pH 1.5 (SGF); for turbidity threshold (L, M, H) 4.5: pH 4.5 (SIF); for turbidity threshold (L, M, H) 6.8: pH 6.8 (SIF); for turbidity threshold (L, M, H) 7.4: pH 7.4 (HEPES). As for the experimental part: As an indication of relative solubility, the turbidity of compounds in aqueous solutions is assessed. To assess possible compound properties in different physiological compartments, such as stomach, intestine, and blood, a series of aqueous buffers with varying pH is used. Thus each compound is diluted into four different physiologically relevant buffers and solution turbidity is measured by spectrophotometry.
Compounds are dissolved at a concentration of 25 mM in dimethyl sulfoxide, then serially diluted 1:1 into a 96 well plate, diluting 10 times in pure dimethyl sulfoxide, with the final well of each row a dimethyl sulfoxide blank. In an assay plate, 99 μL of appropriate buffer is added to each well, and 1 μL of each sample dilution is added to the buffer, achieving a range of final total concentrations in aqueous solutions having different pH. The buffers used are Simulated Gastric Fluid (SGF-pH 1.5) 0.5M NaCl, pH 1.5; Simulated Intestinal fluid (SIF-pH 4.5 and pH 6.8) 0.05M NaH2PO4, pH 4.5 and 6.8; and Hepes Buffer (HEPES-pH 7.4) 10 mM HEPES, 150 mM NaCl, pH 7.4. Control compounds pyrene, estriol and propranolol HCl are also assessed. Plates are spun and then mixed for 1 minute, and the absorbance is read using a Tecan Safire II to read wavelengths in the visible range (490, 535, and 650 nm) at four locations per well, reflecting the degree of turbidity present. The average optical density for each wavelength in each well is graphed vs. compound concentration, and the concentration at which the curve crosses a threshold O.D. of 0.01 for each wavelength is reported as the endpoint turbidity assay result. The average of the three wavelengths is used to compare turbidity of compounds.

Series [2] deals with CYP3A4(BQ) (Homo sapiens, UniProt P08684). As to the kind of experiment: CYP3A4(BQ) inhibition. Particulars: CYP3A4, substrate BQ; read-out: Cyp IC50 3A4(BQ). The class given is in vitro ADME. The procedure:
CYP (Cytochrome P450) enzymes are the major drug metabolizing enzymes present in the liver. The inhibition of CYP enzyme activity (IC50) for each of CYP1A2, CYP2C19, CYP2C9, CYP2D6, CYP3A4(BFC) and CYP3A4(BQ) is determined for compounds, where inhibition of metabolism of a known substrate leads to a decrease in the fluorescence of the metabolized product. The fluorescence of the product is monitored as a function of compound concentration. Compounds are dissolved in DMSO to a concentration of 100 mM. These are diluted 1 μL into 82 μL of acetonitrile. An 11 μL aliquot of this solution is then added to 204 μL of cofactor mix (1.3% NADPH Regeneration system Solution A, 1.04% NADPH Regeneration system Solution B from BD Biosciences, 5% acetonitrile and 0.05% DMSO). These are then serially diluted 1:1 (160 μL to 160 μL co-factor mix) for a total of 10 points. A 10 μL aliquot of this final mixture is dispensed into 384 well assay plates and incubated for 10 minutes at 37° C. […] Assay plates are incubated at 37° C. (CYP1A2-15 min; CYP2C9-45 min; CYP2C19, 2D6 and 3A4-30 min) and read in a Tecan Safire 2 plate reader (CYP1A2, 2C19 and 3A4 409 ex/460 em; CYP2C9 and 2D6 409 ex/530 em). The signal versus compound concentration is used to determine the IC50. The enzymes and substrates for this assay are obtained from BD Biosciences.

The target of series [3] is c-Kit kinase (Homo sapiens, UniProt P10721). Kind of series: c-Kit kinase biochemical activity assay (AlphaScreen, biotin-(E4Y)10 phosphorylation). As to conditions: 100 μM ATP; read-out: Biochemical Inhibition IC50 Kit. As for the experimental part: Assays for biochemical and cell based activity are known in the art, for example, U.S. Patent Application Publication Number 2009/0076046, the disclosure of which is hereby incorporated by reference as it relates to such assays. For example, in one assay the biochemical activity IC50 values are determined with respect to inhibition of c-Kit kinase activity, where inhibition of phosphorylation of a peptide substrate is measured as a function of compound concentration. Compounds to be tested are dissolved in DMSO to a concentration of 20 mM. These are diluted 30 μL into 120 μL of DMSO (4 mM) and 1 μL is added to an assay plate. These are then serially diluted […] (50 μL to 100 μL DMSO) for a total of 8 points. Plates are prepared such that each kinase reaction is 20 μL in 1× kinase buffer (25 mM HEPES, pH 7.5, 2 mM MgCl2, 2 mM MnCl2, 0.01% Tween-20, 1 mM DTT, 0.01% BSA), 5% DMSO and 100 μM ATP. Substrate is 30 nM biotin-(E4Y) 10 (Millipore). C-kit kinase (obtained from Millipore (#14-559) or is prepared as described in U.S. Patent Application Publication Number 2009/0076046, the disclosure of which is hereby incorporated by reference as it relates to this assay) is at 0.75 ng per sample. After incubation of the kinase reaction for 1 hour at room temperature, 5 μL of donor beads (Streptavidin coated beads (Perkin Elmer Life Science) final concentration 10 μg/mL) in stop buffer (25 mM Hepes pH 7.5, 100 mM EDTA, 0.01% BSA) is added, the sample is mixed and incubated for 20 minutes at room temperature before adding 5 μL of acceptor beads (PY20 coated beads (Perkin Elmer Life Science) final concentration 10 μg/mL) in stop buffer. The samples are incubated for 60 minutes at room temperature and the signal per well is read on Envision reader. Phosphorylated substrate results in binding of the PY20 antibody and association of the donor and acceptor beads such that signal correlates with kinase activity. The signal vs. compound concentration is used to determine the IC50.
A general note: Bead proximity is the source of the signal in Alpha formats.

c-Kit kinase, sequence (P10721 26-976): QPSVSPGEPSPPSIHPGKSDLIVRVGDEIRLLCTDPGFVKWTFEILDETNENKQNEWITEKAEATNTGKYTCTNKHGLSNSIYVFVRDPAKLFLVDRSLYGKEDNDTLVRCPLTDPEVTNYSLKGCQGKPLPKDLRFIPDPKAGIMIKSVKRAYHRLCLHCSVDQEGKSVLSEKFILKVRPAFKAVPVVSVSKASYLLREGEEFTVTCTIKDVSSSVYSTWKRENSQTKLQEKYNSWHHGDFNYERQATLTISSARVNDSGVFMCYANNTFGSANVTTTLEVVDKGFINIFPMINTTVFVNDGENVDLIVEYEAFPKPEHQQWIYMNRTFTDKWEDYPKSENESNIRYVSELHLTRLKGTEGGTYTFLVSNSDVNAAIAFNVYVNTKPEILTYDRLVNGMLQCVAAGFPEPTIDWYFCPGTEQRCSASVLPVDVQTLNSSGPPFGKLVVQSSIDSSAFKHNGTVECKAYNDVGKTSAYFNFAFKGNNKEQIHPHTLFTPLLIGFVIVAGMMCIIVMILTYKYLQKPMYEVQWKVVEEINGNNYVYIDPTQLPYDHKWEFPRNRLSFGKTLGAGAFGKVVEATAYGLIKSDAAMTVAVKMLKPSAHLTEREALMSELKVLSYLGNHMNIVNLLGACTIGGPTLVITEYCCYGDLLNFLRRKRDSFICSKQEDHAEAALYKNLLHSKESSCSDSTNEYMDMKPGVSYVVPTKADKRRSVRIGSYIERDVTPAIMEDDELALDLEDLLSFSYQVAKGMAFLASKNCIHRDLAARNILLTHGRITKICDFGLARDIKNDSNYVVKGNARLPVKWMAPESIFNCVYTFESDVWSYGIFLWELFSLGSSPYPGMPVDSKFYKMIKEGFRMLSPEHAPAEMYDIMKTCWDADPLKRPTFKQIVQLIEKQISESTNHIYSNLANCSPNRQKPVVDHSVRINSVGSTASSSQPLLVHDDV
CYP3A4(BQ), sequence (P08684 whole entry): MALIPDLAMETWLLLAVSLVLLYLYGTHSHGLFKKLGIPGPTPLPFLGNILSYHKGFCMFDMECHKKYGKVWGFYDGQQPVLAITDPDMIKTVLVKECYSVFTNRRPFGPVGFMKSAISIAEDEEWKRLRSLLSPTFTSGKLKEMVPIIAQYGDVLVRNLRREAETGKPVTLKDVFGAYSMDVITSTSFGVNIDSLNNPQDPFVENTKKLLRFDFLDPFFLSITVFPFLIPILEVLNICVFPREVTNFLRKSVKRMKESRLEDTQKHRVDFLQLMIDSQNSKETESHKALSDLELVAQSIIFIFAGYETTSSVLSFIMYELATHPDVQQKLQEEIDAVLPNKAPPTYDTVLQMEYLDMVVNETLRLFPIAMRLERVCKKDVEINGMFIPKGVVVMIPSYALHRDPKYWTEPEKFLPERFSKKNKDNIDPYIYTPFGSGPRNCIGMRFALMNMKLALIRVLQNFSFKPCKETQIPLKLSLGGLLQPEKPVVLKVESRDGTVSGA

As usually defined, the IC50 is the concentration that inhibits the measured activity by half. Turning to `CNc1ncnc2[nH]cc(C(=O)c3ccc(NC4CCC(F)(F)CC4)nc3F)c12` [Compound P-4063, [6-[(4,4-difluorocyclohexyl)amino]-2-fluoro-3-pyridyl]-[4-(methylamino)-7H-pyrrolo[2,3-d]pyrimidin-5-yl]methanone], in series [1], the “turbidity threshold (L, M, H) 1.4” value is given as “M (moderate solubility if the threshold concentration is 31.3 μM to 250 μM)”; the “turbidity threshold (L, M, H) 4.5” value was “M (moderate solubility if the threshold concentration is 31.3 μM to 250 μM)”; the “turbidity threshold (L, M, H) 6.8” value is given as “M (moderate solubility if the threshold concentration is 31.3 μM to 250 μM)”; the “turbidity threshold (L, M, H) 7.4” value is given as “M (moderate solubility if the threshold concentration is 31.3 μM to 250 μM)”. Further, the IC50 in series [2] is above 10 µM. The IC50 in series [3] was below 1 µM.

For the compound `CCc1ccc(Nc2ccc(C(=O)c3c[nH]c4ncnc(N)c34)c(F)n2)cn1` [Compound P-4065, (4-amino-7H-pyrrolo[2,3-d]pyrimidin-5-yl)-[6-[(6-ethyl-3-pyridyl)amino]-2-fluoro-3-pyridyl]methanone], in series [1], the “turbidity threshold (L, M, H) 1.4” value is recorded as “H (high solubility if the threshold concentration is >250 μm)”; the “turbidity threshold (L, M, H) 4.5” value is “M (moderate solubility if the threshold concentration is 31.3 μM to 250 μM)”; the “turbidity threshold (L, M, H) 6.8” value was “M (moderate solubility if the threshold concentration is 31.3 μM to 250 μM)”; the “turbidity threshold (L, M, H) 7.4” value is “M (moderate solubility if the threshold concentration is 31.3 μM to 250 μM)”. Further, in series [2], the concentration for half-maximal inhibition (IC50) is above 10 µM. Also, the IC50 in series [3] is below 0.1 µM.

In the case of `COc1ccc(Nc2ccc(C(=O)c3c[nH]c4ncnc(NC(C)C)c34)c(F)n2)cn1` [Compound P-4066, [2-fluoro-6-[(6-methoxy-3-pyridyl)amino]-3-pyridyl]-[4-(isopropylamino)-7H-pyrrolo[2,3-d]pyrimidin-5-yl]methanone], in series [1], the “turbidity threshold (L, M, H) 1.4” value is “M (moderate solubility if the threshold concentration is 31.3 μM to 250 μM)”; the “turbidity threshold (L, M, H) 4.5” value was “L (low solubility if the threshold concentration is <31.3 μM)”; the “turbidity threshold (L, M, H) 6.8” value is given as “L (low solubility if the threshold concentration is <31.3 μM)”; the “turbidity threshold (L, M, H) 7.4” value is given as “M (moderate solubility if the threshold concentration is 31.3 μM to 250 μM)”. Moreover, the IC50 in series [2] lay in the range of 5 to 10 µM. For the same compound, the IC50 in series [3] was below 0.1 µM.

On to `COc1ccc(Nc2ccc(C(=O)c3c[nH]c4ncnc(NCC5CC5)c34)c(F)n2)cn1` [Compound P-4067, [4-(cyclopropylmethylamino)-7H-pyrrolo[2,3-d]pyrimidin-5-yl]-[2-fluoro-6-[(6-methoxy-3-pyridyl)amino]-3-pyridyl]methanone], for which, in series [1], the “turbidity threshold (L, M, H) 1.4” value is reported as “H (high solubility if the threshold concentration is >250 μm)”; the “turbidity threshold (L, M, H) 4.5” value was “M (moderate solubility if the threshold concentration is 31.3 μM to 250 μM)”; the “turbidity threshold (L, M, H) 6.8” value is on record as “M (moderate solubility if the threshold concentration is 31.3 μM to 250 μM)”; the “turbidity threshold (L, M, H) 7.4” value is given as “M (moderate solubility if the threshold concentration is 31.3 μM to 250 μM)”. In series [2], the IC50 was above 10 µM. Further, in series [3], the IC50 was below 1 µM.

Consider `CCCNc1ncnc2[nH]cc(C(=O)c3ccc(Nc4ccc(OC)nc4)nc3F)c12` [Compound P-4068, [2-fluoro-6-[(6-methoxy-3-pyridyl)amino]-3-pyridyl]-[4-(propylamino)-7H-pyrrolo[2,3-d]pyrimidin-5-yl]methanone], for which, in series [1], the “turbidity threshold (L, M, H) 1.4” value is recorded as “H (high solubility if the threshold concentration is >250 μm)”; the “turbidity threshold (L, M, H) 4.5” value was “M (moderate solubility if the threshold concentration is 31.3 μM to 250 μM)”; the “turbidity threshold (L, M, H) 6.8” value is “M (moderate solubility if the threshold concentration is 31.3 μM to 250 μM)”; the “turbidity threshold (L, M, H) 7.4” value is given as “M (moderate solubility if the threshold concentration is 31.3 μM to 250 μM)”. The concentration for half-maximal inhibition (IC50) in series [2] was above 10 µM. Further, the IC50 in series [3] is below 0.1 µM.

Source of the values: US8901118B2, “Compounds and methods for kinase modulation, and indications therefor” (Plexxikon Inc., priority 2010, dated 2014).
